Experimental findings from ChEMBL document CHEMBL6182882, “Evodiamine-Based Nitroreductase Responsive Theranostic Agents for Treatment of Colon Cancer” (J Med Chem, 2025) are described below.

Where only a bound is given, the exact number is not on record here.

A short description of data set [1]: Prodrug activation in phosphate buffer saline at pH 7.4 assessed as Escherichia coli nitroreductase mediated 3-fluoro-10-hydroxy-14-methyl-8,13,13b,14-tetrahydroindolo[2',3':3,4]pyrido[2,1-b]quinazolin-5(7H)-one formation by measuring fluorescence emission intensity at 25 uM incubated for 2 hrs in presence of NADH by fluorescence spectrophotometric analysis. The settings on record: isolated protein, pH 7.4, 2 h.

Data set [2] has as its system HCT-116. The experiment in a line: Cytotoxicity against human HCT-116 cells assessed as inhibition of cell growth incubated for 72 hrs under hypoxic conditions by CCK-8 assay. Particulars: HCT-116, 72 h. It counts as functional, cell-based. For orientation: Tetrazolium assays rely on reduction of a dye to a coloured formazan, in cell work by metabolically active cells.

In data set [3] the test system is A549. The experiment in a line: Cytotoxicity against human A549 cells assessed as inhibition of cell growth incubated for 72 hrs under hypoxic conditions by CCK-8 assay. It counts as functional, cell-based. The settings on record: A549, 72 h.
Data set [4] is described as follows: Cytotoxicity against human HUVEC cells assessed as inhibition of cell growth incubated for 72 hrs under normoxic condition by CCK-8 assay. It counts as toxicity, cell-based.
The nature of data set [5]: Metabolic stability in ICR mouse liver microsomes assessed as terminal half life. Particulars: read-out: beta t1/2. It counts as ADME, Microsome. In general terms: Liver microsomes are vesicles of endoplasmic reticulum, rich in cytochrome P450 enzymes.
Data set [6] is described as follows: Metabolic stability in ICR mouse liver microsomes assessed as intrinsic clearance. The settings on record: read-out: CLH. It counts as ADME, Microsome.
For data set [7], the system named is Fusobacterium nucleatum. Description: Antibacterial activity against Fusobacterium nucleatum. It counts as functional.

Take `CN1c2ccc(F)cc2C(=O)N2CCc3c([nH]c4ccc(OC(=O)OCc5cc6ccc(OCc7ccc([N+](=O)[O-])cc7)cc6oc5=O)cc34)C21` (stereo not drawn): the Drug metabolism result in data set [1] is given as “metabolite_detected”.
Same read-out and setting: with `CN1c2ccc(F)cc2C(=O)N2CCc3c([nH]c4ccc(OC(=O)/C=C/C(=O)OCc5cc6ccc(OCc7ccccc7)cc6oc5=O)cc34)C21` (stereo not drawn) the entry was “metabolite_notdetected”.
For the molecule `CN1c2ccc(F)cc2C(=O)N2CCc3c([nH]c4ccc(O)cc34)C21` (stereo not drawn), the IC50 in data set [2] and in data set [3] was 15 nM in each case. In addition, the IC50 at 72 h in data set [4] stood at 44 nM. In addition, in data set [5], the half-life came to 9.83 min. Moreover, the CLint scaled in data set [6] was found to be 555 mL/min/kg. Besides, the MIC50 in data set [7] was above 64 µg/mL.

For orientation: IC50 means the concentration that gives 50% inhibition. By MIC50 is commonly meant the lowest concentration that inhibits either 50% of growth or 50% of the strains tested, depending on the study. Read a low MIC50 as greater potency.
